# Data: US7749962B2, “Alpha 5 beta 1 and its ability to regulate the cell survival pathway” (University of Medicine & Dentistry of NJ, priority 2002, dated 2010)
# Where two headings read alike, the source gives them in different places.
# What was measured:
# RhoA = RhoA (Homo sapiens, UniProt P61586); conditions: target RhoA, cited from earlier work
# Akt [1] = experiment: Western blot of Akt phosphorylation after ATRA; assay type: cell-based
# Protocol: MCF-7 cells were treated with EGF 100 ng/ml for 10 min followed by ATRA 10^−7 M or control media 2 h later for an additional 24 h. Western blots of lysates were stained with anti-phospho-Akt ab. Cells were harvested and lysates were prepared as described^2 and analyzed as before^3.
# MDA-MB-231 cells = experiment: Clonogenic potential with growth factors in tissue culture; assay type: cell-based; conditions: growth factor 10 ng/ml
# Protocol: (§1) One thousand MCF-7 or MDA MB-231 cells per well were incubated in 24 well tissue culture plates with and without the presence of 10 ng/ml basic fibroblast growth factor (FGF-2) or epidermal growth factor (EFG). Plates were stained with crystal violet after a 5 day incubation and clones consisting of A. 29±2 cells and B. 8±2 cells were counted. C. Ten thousand T-47D cells per well were incubated in 24 well tissue culture plates coated with fibronectin with and without the presence of 10 ng/ml basic fibroblast growth factor (FGF-2) or epidermal growth factor (EFG). Plates were stained with crystal violet after 3 days and clones consisting of 8 or more cells were counted.
# (§2) MCF-7 and T-47D (1,000 cells/well) and MDA MB-231 (200 cells per well) were incubated in 24 well plates±10 ng/ml EFG or FGF-2 for 6 days, stained with crystal violet and clones with ≧29 actively growing cells (▪) or with ≦10 well spread, growth arrested cells ( ? ) were counted.
# (§3) MCF-7, SK-Br-3, MDA-MB-231, PC-3 and LNCaP cells were purchased from the American Type Culture Collection (ATCC), (Rockville, Md.). Cells were cultured in Dulbecco's Modified Eagle's Medium (DMEM) (Gibco BRL, Gaithersburg, Md.) with phenol red 15 mg/l, 2 mM glutamine, 10% heat inactivated fetal calf serum (FCS) and penicillin 50 units/ml and streptomycin 50 micrograms μg/ml (Gemini Bioproducts, Calabasas, Calif.). One to ten thousand cells were incubated on 24 well tissue culture plates that were either commercially coated for tissue culture (uncoated) or coated with 20 g fibronectin, laminin I, collagen I or collagen IV, depending on the cell type or experimental conditions described in the figure legends. Colonies were manually counted at 100× magnification after variable days in culture as described in the figure legends after removing the media and staining cells with crystal violet. Proliferation kinetics were performed as before^1 using 2% trypan blue counts on trypsinized cells on the days indicated in the figure in triplicate plates.
# MCF-7 and T-47D cells = experiment: as above; assay type: cell-based; conditions: growth factor 10 ng/ml
# Protocol: as §1, §2, §3
# MCF-7 cells = experiment: Clonogenicity ± fibronectin with FGF-2 and fibronectin-blocking peptide; assay type: cell-based; conditions: FGF-2 10 ng/ml; peptide 1 ng/ml added after 3 days, counted 6 days later
# Protocol: 10^3 MCF-7 (and T-47D, not shown) cells were incubated±fibronectin with 10 ng/ml FGF-2. Fibronectin-blocking peptide GRGDSP 1 ng/ml (American Peptide Co., Inc, Sunnyvale, Calif.) was added after 3 days and 4, 8 and 12 cell colonies were counted 6 days later.
# as §3
# integrin α5 = experiment: Western blot of integrin α5 expression ± FGF-2; assay type: cell-based
# Protocol: A. Gene chip analysis of integrin α5 and β1 mRNA expression in MCF-7 cells incubated±FGF-2 for 3 or 5 days on fibronectin-coated plates. Densitometer quantitations normalized against GAPDH and actin mRNA standards are shown. B. Western blots of integrin α5 from cells incubated±FGF-2 for 3 days on tissue culture- or fibronectin-coated dishes. C. Indirect immunofluorescence of integrin α5 in T-47D cells on cover slips±FGF-2 10 ng/ml for 24 hours. D. Western blots of integrins α2, α3, α4, α6, β1, β3 and β4 in MCF-7 and T-47D cells incubated±FGF-2 for 3 days. Nonspecific bands were as loading controls.
# (§4) Cells were harvested and lysates were prepared as described^2 and analyzed as before^3.
# Akt [2] = experiment: Western blot of Akt phosphorylation by FGF-2 on fibronectin; assay type: cell-based
# Protocol: Western blots of lysates from MCF-7, T-47D and MDA-MB-231 cells incubated on fibronectin-coated plates with FGF-2 for up to 5 days were stained with antibody to phospho-Akt or total Akt. […] No effect was noted on total Akt levels. Stained membrane was used as a loading control.
# as §4
# RhoA, sequence (P61586 whole entry, species assumed): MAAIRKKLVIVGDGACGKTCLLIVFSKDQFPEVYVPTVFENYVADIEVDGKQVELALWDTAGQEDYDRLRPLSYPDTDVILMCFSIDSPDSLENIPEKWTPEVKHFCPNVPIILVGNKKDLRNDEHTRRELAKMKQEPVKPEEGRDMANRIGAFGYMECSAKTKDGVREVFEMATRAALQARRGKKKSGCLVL
compound,measurement,setting,value
C3 transferase,ED50,RhoA,2 to 5 µg/mL
same,ED50,RhoA; listed as C3 transferase inhibitor,2 to 5 µg/mL
"CC1=C(/C=C/C(C)=C/C=C/C(C)=C/C(=O)O)C(C)(C)CCC1 [ATRA, all-trans retinoic acid]",FGF-2 induced increases in total and phosphorylated Akt,Akt [1],reversed FGF-2 induced increases in total and Phosphorylated Akt
same,EGF-mediated phosphorylation of Akt,"Akt [1]; MCF-7 cells, EGF 100 ng/ml, ATRA 10^−7 M for 24 h",reversed the EGF-mediated phosphorylation of Akt
"EFG: epidermal growth factor; recombinant human, R&D Systems",growth (clonogenic potential),MDA-MB-231 cells,no effect
same,clonogenic potential,MCF-7 and T-47D cells,no effect
GRGDSP,colonies on fibronectin,MCF-7 cells,only inhibited colonies on fibronectin
same,colonies on plastic,MCF-7 cells,not on plastic
"FGF-2: fibroblast growth factor 2, basic fibroblast growth factor; recombinant human, R&D Systems",integrin α5 expression,integrin α5; MCF-7 and T-47D cells on plastic or fibronectin-coated dishes,induction of integrin α5 expression
same,integrin α5 expression,"integrin α5; MDA-MB-231 cells, baseline high levels",No effect
same,phosphorylation of Akt,"Akt [2]; MCF-7 and T-47D cells on fibronectin, up to 5 days",induced phosphorylation of Akt
same,phosphorylation of Akt,"Akt [2]; MDA-MB-231 cells on fibronectin, constitutive phosphorylation",no effect on constitutive Akt phosphorylation
same,growth (clonogenic potential),MDA-MB-231 cells,no effect
same,clonogenic potential,MCF-7 and T-47D cells,markedly diminished clonogenic potential
